Data reported in patent US9221861B2, “Multivalent [beta]-1-2-linked mannose oligosaccharides as immunostimulatory compounds and uses thereof” (ABO AKADEMI UNIVERSITY, priority 2011, dated 2015).
Entries after “also recorded” stand apart in the source; their conditions may differ.

Legend:
Format in all cases: cell-based, human
[1] = tested on: peripheral blood mononuclear cells (PBMC); test: Induction of cytokines by synthetic oligosaccharide RP-I-82 in PBMC (Example 4); conditions: PBMC of three subjects, 24 hours
Procedure: (§1) The human PBMC were isolated from heparinized blood samples with Ficoll (Ficoll-Paque, Amersham Pharmacia Biotech, Sweden) density gradient centrifugation. The PBMC were washed twice with Hanks' balanced salt solution (HBSS) and suspended in RPMI medium supplemented 5% autologous serum, 2 mM L-glutamine (Fluka Biochemica, Germany) and 100 µg/ml gentamycin (Biological Industries, Israel). The cell suspension was diluted in the RPMI-based culture medium to 10^6 cells/ml and applied on 48-well culture plates (Costar, Cambridge, Mass., USA).
The synthetic oligosaccharide coded RP-I-82 was tested for the production of cytokines IL-4, IL-5, IL-10, IL-13, TNF and IFN-γ, in peripheral blood mononuclear cells (PBMC) samples of three subjects. The PBMC were stimulated by adding solubilized oligosaccharide in cell culture suspension. The synthetic oligovalent 3-1,2-linked oligosaccharide used in this example was a molecule according to the compound of formula (IV) of the invention (coded RP-I-82). A positive control was acid hydrolyzed Candida albicans mannan (CAM). The cytokine responses from PBMC were detected 24 hours after beginning of the stimulation by measuring cytokine secretion with high-sensitivity human cytokine LINCOplex™-kits (LINCO Research, St. Charles, Mo., USA) using Luminex^100™ instrumentation. The assays were performed in accordance with the manufacturer's protocol by employing Luminex technology.

[2] = tested on: allergen (birch) stimulated PBMC culture; test: Comparison with prior art adjuvants in suppression of birch allergen-induced IL-4, IL-5 and IL-13 in PBMC (Example 3); conditions: 24 hours; for Mean (SD) percentage of Birch induced cytokine response, IL-5: 15 subjects; for Mean (SD) percentage of Birch induced cytokine response, IL-13: 17 subjects; for Mean (SD) percentage of Birch induced cytokine response, IL-4: 19 subjects
Procedure: as §1
The effect of synthetic molecule according to the compound of formula (IV) of the invention coded CM-C8-2010 on the production of IL-4, IL-5 and IL-13, the main Th2-type cytokines promoting allergic inflammation, was studied in an allergen (birch) stimulated PBMC culture of 26 birch allergic patients with allergic rhinitis. The effect was compared to that of 3-deacylated monophosphoryl lipid A (MPL), the non-toxic derivative of lipopolysaccharide of Salmonella minnesota (LPS), and immunostimulatory bacterial DNA sequence (CpG-ODN-1). These molecules have been clinically successfully tested as adjuvants in allergen immunotherapy. Another bacterial DNA sequence (CpG-ODN-2) without immunostimulatory activity was used as a negative control. The PBMC were collected during a strong birch pollen season, were isolated and cultured as described above. Birch whole allergen extract was used at a concentration of 50 µg/ml and CM-C8-2010 at concentrations 200 and 20 µg/ml. CpG-ODN-1 and CpG-ODN-2 were used at a concentration 5 µg/ml and MPL at a concentration 10 µg/ml based on earlier published experiments. The cultures were incubated for 24 hours. Following stimulation, the productions of IL-4, IL-5 and IL-13 were measured with LINCOplex™-kits using Luminex100™ instrumentation. For analysis only the cultures with strong induced cytokine responses were included.

[3] = tested on: allergen (birch) stimulated PBMC culture; test: Effect on allergen (birch) induced IL-5 production in PBMC culture (Example 2); conditions: PBMC of four birch allergic rhinitis patients; birch extract 50 µg/ml; CM-C8-2010 20 µg/ml; 72 hours (FIG. 6)
Procedure: as §1
Trivalent acetylated monosaccharide coded CM-C4-2011 was used as a negative control. The PBMC were isolated and cultured as described above. Birch whole allergen extract was used at a concentration of 50 µg/ml and CM-C8-2010 at a concentration of 20 µg/ml. The cultures were incubated for 72 hours. Following stimulation, the production of IL-5 was measured with LINCOplex™-kits using Luminex100™ instrumentation.

[4] = tested on: peripheral blood mononuclear cells (PBMC); test: Induction of cytokines by synthetic β-1,2-linked mannooligosaccharide compounds in PBMC (Example 1); conditions: PBMC of three atopic subjects, 72 h, 20 and 200 μg/ml (FIG. 5), LINCOplex/Luminex
Procedure: as §1
The synthetic oligosaccharides were tested for the production of cytokines IL-4, IL-5, IL-10 and IFN-γ, in peripheral blood mononuclear cells (PBMC) samples of three atopic subjects. The PBMC were stimulated by adding solubilized oligosaccharides in cell culture suspension. The synthetic polyvalent β-1,2-linked oligosaccharides used in this example are a molecule according to the compound of formula (IV) of the invention (coded CM-C8-2010), trivalent monosaccharide (R═H) coded CM-C4-2010 and pentavalent disaccharide (R═O) coded CM-C7-2010. The cytokine responses from PBMC were detected 72 h after beginning of the stimulation by measuring cytokine secretion with high-sensitivity human cytokine LINCOplex™-kits (LINCO Research, St. Charles, Mo., USA) using Luminex^100™ instrumentation. The assays were performed in accordance with the manufacturer's protocol by employing Luminex technology.

[5] = PBMC of birch allergic patients

CC(=O)OC[C@H]1O[C@@H](O[C@@H]2[C@@H](OCCCn3cc(COCC(COCc4cn(CCCO[C@H]5O[C@H](COC(C)=O)[C@@H](OC(C)=O)[C@H](OC(C)=O)[C@@H]5O[C@@H]5O[C@H](COC(C)=O)[C@@H](OC(C)=O)[C@H](OC(C)=O)[C@@H]5OC(C)=O)nn4)OCc4cn(CCCO[C@H]5O[C@H](COC(C)=O)[C@@H](OC(C)=O)[C@H](OC(C)=O)[C@@H]5O[C@@H]5O[C@H](COC(C)=O)[C@@H](OC(C)=O)[C@H](OC(C)=O)[C@@H]5OC(C)=O)nn4)nn3)O[C@H](COC(C)=O)[C@@H](OC(C)=O)[C@@H]2OC(C)=O)[C@@H](OC(C)=O)[C@@H](OC(C)=O)[C@@H]1OC(C)=O (stereo partly drawn) [RP-I-82, 1,2,3-tris[1-[(2,3,4,6-tetra-O-acetyl-β-D-mannopyranosyl)-(1→2)-(3,4,6-tri-O-acetyl-α-D-mannopyranosyloxypropyl)]-4-[methyl-1-oxy]triazolyl]propane]
Production of cytokines, mean (SD), IFN-γ ([1]; 20 μg/ml): 10 (15) pg/ml | Production of cytokines, mean (SD), IL-4 ([1]; 20 μg/ml): 2.6 (0.8) pg/ml | Production of cytokines, mean (SD), IL-5 ([1]; 20 μg/ml): 0.1 (0.2) pg/ml | Production of cytokines, mean (SD), IL-10 ([1]; 20 μg/ml): 110 (109) pg/ml | Production of cytokines, mean (SD), IL-13 ([1]; 20 μg/ml): 0.6 (0.2) pg/ml | Production of cytokines, mean (SD), TNF ([1]; 20 μg/ml): 52 (26) pg/ml | Production of cytokines, mean (SD), IFN-γ ([1]; 200 μg/ml): 18 (25) pg/ml | Production of cytokines, mean (SD), IL-4 ([1]; 200 μg/ml): 2.7 (0.2) pg/ml | Production of cytokines, mean (SD), IL-5 ([1]; 200 μg/ml): 0.2 (0.2) pg/ml | Production of cytokines, mean (SD), IL-10 ([1]; 200 μg/ml): 843 (253) pg/ml | Production of cytokines, mean (SD), IL-13 ([1]; 200 μg/ml): 0.5 (0.0) pg/ml | Production of cytokines, mean (SD), TNF ([1]; 200 μg/ml): 295 (146) pg/ml | IFN-γ production, inducer strength (in words) [1]: moderate inducer | IL-4 production (in words) [1]: not seen at all | IL-5 production (in words) [1]: not seen at all | IL-10 production, inducer strength (in words) [1]: strong inducer; also recorded: considerably higher than for the control | IL-13 production (in words) [1]: not seen at all | TNF production, inducer strength (in words) [1]: strong inducer; also recorded: considerably higher than for the control | pattern of cytokine induction in comparison to the blank sample (no stimulation) [1]: selective induction

CC(=O)OCC1O[C@@H](OC2C(OC(C)=O)[C@H](OC(C)=O)C(COC(C)=O)O[C@@H]2OCCn2cc(COCC(COCc3cn(CCO[C@H]4OC(COC(C)=O)[C@@H](OC(C)=O)C(OC(C)=O)C4O[C@@H]4OC(COC(C)=O)[C@@H](OC(C)=O)C(OC(C)=O)C4OC(C)=O)nn3)OCc3cn(CCO[C@H]4OC(COC(C)=O)[C@@H](OC(C)=O)C(OC(C)=O)C4O[C@@H]4OC(COC(C)=O)[C@@H](OC(C)=O)C(OC(C)=O)C4OC(C)=O)nn3)nn2)C(OC(C)=O)C(OC(C)=O)[C@@H]1OC(C)=O (stereo partly drawn) [CM-C8-2010, 1,2,3-tris[1-[(2,3,4,6-tetra-O-acetyl-β-D-mannopyranosyl)-(1→2)-(3,4,6-tri-O-acetyl-α-D-mannopyranosyloxyethyl)]-4-[methyl-1-oxy]triazolyl]propane]
Mean (SD) percentage of Birch induced cytokine response, IL-5 ([2]; 20 μg/ml): 86.0 (25.9) % | Mean (SD) percentage of Birch induced cytokine response, IL-13 ([2]; 20 μg/ml): 85.9 (97.5) % | Mean (SD) percentage of Birch induced cytokine response, IL-4 ([2]; 20 μg/ml): 90.8 (22.7) % | Mean (SD) percentage of Birch induced cytokine response, IL-5 ([2]; 200 μg/ml): 70.6 (22.6) % | Mean (SD) percentage of Birch induced cytokine response, IL-13 ([2]; 200 μg/ml): 58.5 (48.0) % | Mean (SD) percentage of Birch induced cytokine response, IL-4 ([2]; 200 μg/ml): 78.6 (24.3) % | suppression of birch allergen induced IL-4 response (in words) [2, 5]: more effectively than CpG-ODN-1 or MPL | suppression of birch allergen induced IL-5 response (in words) [2, 5]: more effectively than CpG-ODN-1 or MPL | suppression of birch allergen induced IL-13 response (in words) [2, 5]: more effectively than CpG-ODN-1 or MPL | suppression of birch allergen induced IL-5 response [3]: effectively suppressed | production of IFN-γ (inducer strength) [4]: strong inducer | production of IL-10 (inducer strength) [4]: strong inducer | production of IFN-γ (inducer strength) ([4]; listed as formula (IV)): most active substance | production of IL-10 (inducer strength) ([4]; listed as formula (IV)): most active substance
